What was measured:
CYP2C9 = CYP2C9 (Homo sapiens, UniProt P11712); assay: Inhibition of CYP2C9 (unknown origin) at 3 uM; assay type: ADME
Progesterone receptor = target: T1, Progesterone receptor (Homo sapiens, UniProt P06401); assay: Antagonist activity at PR (unknown origin)
T1 sequence (P06401 whole entry): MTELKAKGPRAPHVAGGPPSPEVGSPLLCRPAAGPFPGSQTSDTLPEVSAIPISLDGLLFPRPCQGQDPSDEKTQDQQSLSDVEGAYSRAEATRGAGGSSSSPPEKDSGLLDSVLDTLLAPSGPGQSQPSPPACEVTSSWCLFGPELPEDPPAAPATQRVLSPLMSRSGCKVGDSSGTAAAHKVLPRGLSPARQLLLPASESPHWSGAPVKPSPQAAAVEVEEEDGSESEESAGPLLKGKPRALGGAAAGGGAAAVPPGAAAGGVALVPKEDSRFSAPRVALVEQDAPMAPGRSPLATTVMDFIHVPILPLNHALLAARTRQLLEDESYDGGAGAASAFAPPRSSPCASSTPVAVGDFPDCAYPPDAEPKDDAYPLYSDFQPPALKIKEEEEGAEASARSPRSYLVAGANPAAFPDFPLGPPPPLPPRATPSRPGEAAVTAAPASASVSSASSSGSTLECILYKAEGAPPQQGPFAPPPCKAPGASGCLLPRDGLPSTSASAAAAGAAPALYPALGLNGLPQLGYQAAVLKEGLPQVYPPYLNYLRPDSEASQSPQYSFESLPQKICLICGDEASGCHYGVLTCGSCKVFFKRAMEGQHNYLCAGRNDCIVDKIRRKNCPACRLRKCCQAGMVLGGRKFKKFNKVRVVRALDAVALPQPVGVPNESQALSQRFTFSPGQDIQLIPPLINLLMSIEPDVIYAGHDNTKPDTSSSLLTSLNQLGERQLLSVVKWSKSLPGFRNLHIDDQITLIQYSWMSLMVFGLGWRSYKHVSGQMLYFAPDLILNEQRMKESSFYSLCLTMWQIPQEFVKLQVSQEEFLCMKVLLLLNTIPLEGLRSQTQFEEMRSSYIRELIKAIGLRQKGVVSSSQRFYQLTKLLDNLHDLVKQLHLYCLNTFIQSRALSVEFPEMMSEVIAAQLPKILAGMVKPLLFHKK

[1] = Dissociation constant, pKa of the compound; assay type: physicochemical

CYP2C9, sequence (P11712 whole entry): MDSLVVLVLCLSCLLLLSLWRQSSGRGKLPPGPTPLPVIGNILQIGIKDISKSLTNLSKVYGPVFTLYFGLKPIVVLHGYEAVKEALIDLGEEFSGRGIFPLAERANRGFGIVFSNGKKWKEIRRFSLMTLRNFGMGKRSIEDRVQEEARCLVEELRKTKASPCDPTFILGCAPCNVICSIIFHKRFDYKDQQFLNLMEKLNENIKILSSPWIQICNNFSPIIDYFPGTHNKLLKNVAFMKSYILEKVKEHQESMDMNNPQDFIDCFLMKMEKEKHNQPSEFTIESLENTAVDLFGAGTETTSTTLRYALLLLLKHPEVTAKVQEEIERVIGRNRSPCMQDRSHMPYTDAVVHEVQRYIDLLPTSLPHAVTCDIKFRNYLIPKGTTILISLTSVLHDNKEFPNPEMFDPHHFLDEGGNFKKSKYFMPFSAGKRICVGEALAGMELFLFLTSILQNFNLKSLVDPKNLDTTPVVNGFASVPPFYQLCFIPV

SMILES: CS(=O)(=O)N[C@H]1CC[C@H](Oc2ccc(C#N)c(Cl)c2)CC1
- inhibition at 3 µM (CYP2C9): 0%
- IC50 (Progesterone receptor): 107 nM

SMILES: COc1cc(NS(=O)(=O)C(F)(F)F)cc(OC)c1Oc1ccc(C#N)c(Cl)c1
- inhibition at 3 µM (CYP2C9): 95%
- IC50 (Progesterone receptor): 175 nM
- pKa [1]: 4.5

SMILES: COc1cc(NS(C)(=O)=O)cc(OC)c1Oc1ccc(C#N)c(Cl)c1
- inhibition at 3 µM (CYP2C9): 9%
- IC50 (Progesterone receptor): 26 nM
- pKa [1]: 8.5

SMILES: N#Cc1ccc(O[C@H]2CC[C@H](NS(=O)(=O)C(F)(F)F)CC2)cc1Cl
- inhibition at 3 µM (CYP2C9): 77%
- IC50 (Progesterone receptor): 43 nM

Reference: ChEMBL document CHEMBL3817830, “Discovery of a novel binding pocket for CYP 2C9 inhibitors: crystallography, pharmacophore modelling and inhibitor SAR” (Medchemcomm, 2016)
